Test results: patent US20100048597A1 (Novartis AG, priority 2006, published 2010)
pIC50: −log10 of the molar value.

Tests used:
[1] = test system: neointima formation; conditions: rats; cited from earlier work
[2] = target: T1, CDK9/cyclinT1 (Homo sapiens, UniProt P50750); test: CDK9/cyclinT1 kinase assay, IMAP fluorescence polarization; assay type: biochemical
T1 construct: purchased Millipore
Outline: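 Recombinant purified enzyme complexes assayed by IMAP fluorescence polarization with 1% final DMSO, 2 h at room temperature; stopped with 1× Developer buffer (85% A/15% B) plus IMAP beads 1/400, then 1 h further at room temperature. IC50 from normalized mP versus log compound concentration.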

[3] = target: T2, CDK1/cyclinB (Homo sapiens, UniProt P06493); test: CDK1/cyclinB kinase assay, IMAP fluorescence polarization; assay type: biochemical; conditions: read-out: CDK1 IC50
T2 construct: purchased Millipore
Outline: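 IMAP fluorescence polarization assay on recombinant purified enzyme, compounds at final 1% DMSO. Reaction run 2 h at room temperature, stopped, held 1 h more before reading polarization.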

[4] = target: T3, CDK2/cyclinA (Homo sapiens, UniProt P24941); test: CDK2/cyclinA kinase assay, IMAP fluorescence polarization; assay type: biochemical
T3 construct: purchased Millipore
Outline: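 Recombinant purified enzyme reactions run 2 hours at room temperature with 1% DMSO final. Stopped with 1× Developer buffer (100% A) and IMAP beads 1/400, then 1 hour more before fluorescence polarization read. IC50 from mP values versus log concentration.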

[5] = target: T4, CDK7/cyclinH/MAT1 (Homo sapiens, UniProt P50613); test: CDK7/cyclinH/Mat1 kinase assay, IMAP fluorescence polarization; assay type: biochemical
T4 construct: purchased Millipore
Procedure: Kinase assays were performed on recombinant purified enzymes using the non-radioactive IMAP fluorescence polarization assay format.
Compound stocks were prepared and diluted in DMSO and were added to kinase reactions at a 1/100 dilution for a final concentration of 1% DMSO. The components were added together to final concentrations listed in the tables below and incubated for two hours at room temperature.
The reactions were stopped by addition of stop solution.
CDK9/CDK1/CDK7: final stop concentration is 1× Developer buffer (85% A/15% B), IMAP beads 1/400
The samples were allowed to incubate for one more hour at room temperature and then the fluorescence polarization was measured. The plate normalized millipolarization (mP) values were plotted against the log of compound concentration for each compound and IC50 values were calculated using the spotfire IC50 calculator and confirmed by visual analysis.

[6] = test system: RNA Polymerase II CTD Serine2 Phosphorylation; test: H5 (Ser2) Ab High Content Screen: RNA Polymerase II CTD Serine2 Phosphorylation Assay in Hep3B cells; assay type: cell-based; conditions: Homo sapiens, 2 hours with compound, H5 antibody staining
Procedure: H5 (also referred as Ser2) Ab High Content Screen: RNA Polymerase II CTD Serine2 Phosphorylation Assay
1. Cells are plated into 384 well plates: 30 μl of Hep3B cells (4,000 cells/30 μl) in DMEM with 3% FBS are plated into wells of a tissue culture treated clear bottomed 384 well plate. Cells are allowed to adhere during an overnight incubation.
2. Cells are treated with compounds for two hours: 10 μl of DMEM with 3% FBS is added to each well with a final concentration of DMSO equal to 1%. Cells are incubated with compounds for 2 hours.
3. Cells are fixed and permeabilized. Cells are washed with 30 mM HEPES pH=7.3 then fixed in 4% paraformaldehyde in 30 mM HEPES pH=7.3 for one hour at room temperature. The fix is removed by washing the cells with Tris buffered saline (TBS) and the cells are permeabilized by incubation in TBS with 0.5% triton X-100 for 30 minutes at room temperature. Triton is removed by washing the cells with TBS.
4. […] Incubate primary H5 Ab (1/250 ) overnight at 4 degrees in TBS with 1% BSA and 0.1% Tween-20. The next day wash cells with TBS. […] Wash cells with PBS.
5. Measure staining using the In-cell Analyzer system from GE Healthcare.

[7] = target: CDK4 (Homo sapiens, UniProt P11802); test: CDK4 kinase assay (Table F); assay type: biochemical
[8] = target: CDK5 (Homo sapiens, UniProt Q00535); test: CDK5 kinase assay (Table F); assay type: biochemical
CDK5, sequence (Q00535 whole entry, species assumed): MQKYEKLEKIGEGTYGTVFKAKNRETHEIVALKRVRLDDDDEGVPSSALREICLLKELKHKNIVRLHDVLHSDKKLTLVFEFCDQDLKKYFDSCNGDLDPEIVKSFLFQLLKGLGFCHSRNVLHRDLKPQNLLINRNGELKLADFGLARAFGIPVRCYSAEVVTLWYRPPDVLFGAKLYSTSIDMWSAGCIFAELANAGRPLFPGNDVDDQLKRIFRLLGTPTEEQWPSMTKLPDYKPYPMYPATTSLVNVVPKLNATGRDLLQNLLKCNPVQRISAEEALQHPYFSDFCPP
CDK5, sequence (Q15078 whole entry partner, species assumed): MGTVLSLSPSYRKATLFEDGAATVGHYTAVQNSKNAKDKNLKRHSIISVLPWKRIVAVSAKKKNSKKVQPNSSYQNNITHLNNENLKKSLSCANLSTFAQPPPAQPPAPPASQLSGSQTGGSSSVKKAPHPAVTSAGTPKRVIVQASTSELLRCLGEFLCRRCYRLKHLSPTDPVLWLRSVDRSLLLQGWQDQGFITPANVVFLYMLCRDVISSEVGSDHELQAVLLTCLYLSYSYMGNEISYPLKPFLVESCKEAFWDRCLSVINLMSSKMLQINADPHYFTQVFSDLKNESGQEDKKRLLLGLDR

T4 sequence (P50613 whole entry): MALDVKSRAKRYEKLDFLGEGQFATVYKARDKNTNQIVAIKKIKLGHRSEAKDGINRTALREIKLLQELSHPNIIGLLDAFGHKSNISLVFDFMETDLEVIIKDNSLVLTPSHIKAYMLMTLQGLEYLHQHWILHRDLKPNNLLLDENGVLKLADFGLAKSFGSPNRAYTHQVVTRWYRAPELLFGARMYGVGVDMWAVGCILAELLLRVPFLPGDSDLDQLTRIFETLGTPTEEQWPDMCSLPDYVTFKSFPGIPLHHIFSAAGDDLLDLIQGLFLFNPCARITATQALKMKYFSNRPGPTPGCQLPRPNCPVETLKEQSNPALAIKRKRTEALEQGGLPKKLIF
T4 sequence (P51946 whole entry partner): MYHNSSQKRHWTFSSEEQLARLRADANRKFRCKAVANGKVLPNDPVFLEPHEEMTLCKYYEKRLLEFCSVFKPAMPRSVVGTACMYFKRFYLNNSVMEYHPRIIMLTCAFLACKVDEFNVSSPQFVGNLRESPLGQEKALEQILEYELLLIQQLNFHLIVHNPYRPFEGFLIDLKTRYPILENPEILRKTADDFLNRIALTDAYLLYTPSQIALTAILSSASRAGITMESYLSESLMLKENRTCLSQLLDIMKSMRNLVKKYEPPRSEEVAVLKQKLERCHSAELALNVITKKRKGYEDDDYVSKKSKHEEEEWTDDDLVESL
T4 sequence (P51948 whole entry partner): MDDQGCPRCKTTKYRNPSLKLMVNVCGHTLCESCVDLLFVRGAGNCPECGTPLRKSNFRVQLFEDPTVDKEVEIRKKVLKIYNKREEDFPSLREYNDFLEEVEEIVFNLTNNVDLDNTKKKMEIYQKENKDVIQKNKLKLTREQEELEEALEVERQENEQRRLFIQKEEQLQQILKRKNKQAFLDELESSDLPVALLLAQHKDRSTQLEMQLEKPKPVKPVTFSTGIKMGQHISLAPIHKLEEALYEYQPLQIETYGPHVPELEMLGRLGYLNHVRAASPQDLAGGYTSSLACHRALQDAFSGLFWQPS
CDK4, sequence (P11802 whole entry, species assumed): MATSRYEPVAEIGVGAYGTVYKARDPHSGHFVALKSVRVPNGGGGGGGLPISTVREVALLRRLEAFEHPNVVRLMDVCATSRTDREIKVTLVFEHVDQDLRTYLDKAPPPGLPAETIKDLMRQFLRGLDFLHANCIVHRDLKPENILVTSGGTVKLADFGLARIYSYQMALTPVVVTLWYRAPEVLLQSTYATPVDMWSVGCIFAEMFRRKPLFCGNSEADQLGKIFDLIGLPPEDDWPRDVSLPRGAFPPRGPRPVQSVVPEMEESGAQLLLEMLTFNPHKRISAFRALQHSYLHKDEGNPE
CDK4, sequence (P24385 whole entry partner, species assumed): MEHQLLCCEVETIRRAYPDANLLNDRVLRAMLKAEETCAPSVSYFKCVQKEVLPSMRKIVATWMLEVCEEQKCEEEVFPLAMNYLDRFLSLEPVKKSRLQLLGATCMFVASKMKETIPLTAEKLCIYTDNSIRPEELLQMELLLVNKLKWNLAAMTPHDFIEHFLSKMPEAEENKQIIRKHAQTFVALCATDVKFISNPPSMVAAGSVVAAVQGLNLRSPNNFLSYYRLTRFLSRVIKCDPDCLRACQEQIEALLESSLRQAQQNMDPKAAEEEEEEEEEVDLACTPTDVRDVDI
T1 sequence (P50750 whole entry): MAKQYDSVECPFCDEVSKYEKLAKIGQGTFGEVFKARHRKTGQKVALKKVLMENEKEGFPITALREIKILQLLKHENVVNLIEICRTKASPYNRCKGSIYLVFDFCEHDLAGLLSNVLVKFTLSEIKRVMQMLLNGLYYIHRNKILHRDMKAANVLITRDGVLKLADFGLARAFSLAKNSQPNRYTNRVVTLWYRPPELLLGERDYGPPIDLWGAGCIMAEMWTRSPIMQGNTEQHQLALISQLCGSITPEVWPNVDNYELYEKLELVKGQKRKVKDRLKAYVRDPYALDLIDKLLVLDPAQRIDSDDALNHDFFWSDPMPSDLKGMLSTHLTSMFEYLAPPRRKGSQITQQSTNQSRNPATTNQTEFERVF
T1 sequence (O60563 whole entry partner): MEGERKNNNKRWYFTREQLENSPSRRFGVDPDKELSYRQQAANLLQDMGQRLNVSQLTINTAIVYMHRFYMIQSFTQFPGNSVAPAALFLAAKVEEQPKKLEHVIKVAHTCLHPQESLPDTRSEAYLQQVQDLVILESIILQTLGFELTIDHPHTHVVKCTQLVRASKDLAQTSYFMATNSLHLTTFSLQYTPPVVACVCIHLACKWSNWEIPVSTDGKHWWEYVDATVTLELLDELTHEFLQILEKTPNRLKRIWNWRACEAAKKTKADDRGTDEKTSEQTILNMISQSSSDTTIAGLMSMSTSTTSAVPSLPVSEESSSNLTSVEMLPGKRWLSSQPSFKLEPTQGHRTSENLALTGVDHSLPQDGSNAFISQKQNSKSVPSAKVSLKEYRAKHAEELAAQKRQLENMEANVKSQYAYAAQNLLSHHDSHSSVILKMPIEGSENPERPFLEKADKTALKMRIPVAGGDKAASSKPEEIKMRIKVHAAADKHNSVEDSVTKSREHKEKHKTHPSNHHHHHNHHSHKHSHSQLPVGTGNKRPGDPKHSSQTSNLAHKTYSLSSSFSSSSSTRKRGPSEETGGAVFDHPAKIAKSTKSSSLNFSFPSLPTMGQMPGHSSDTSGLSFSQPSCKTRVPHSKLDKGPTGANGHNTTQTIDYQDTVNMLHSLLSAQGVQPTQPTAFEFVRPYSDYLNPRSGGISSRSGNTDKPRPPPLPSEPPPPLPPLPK
T2 sequence (P06493 whole entry): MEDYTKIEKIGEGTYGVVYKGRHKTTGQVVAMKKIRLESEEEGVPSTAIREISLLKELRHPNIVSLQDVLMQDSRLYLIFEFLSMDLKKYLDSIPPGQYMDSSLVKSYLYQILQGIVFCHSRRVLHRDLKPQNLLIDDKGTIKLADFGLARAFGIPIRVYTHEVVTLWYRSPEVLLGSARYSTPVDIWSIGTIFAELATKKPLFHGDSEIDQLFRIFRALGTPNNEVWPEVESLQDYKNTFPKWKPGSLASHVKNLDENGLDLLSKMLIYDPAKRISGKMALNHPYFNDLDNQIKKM
T2 sequence (P14635 whole entry partner): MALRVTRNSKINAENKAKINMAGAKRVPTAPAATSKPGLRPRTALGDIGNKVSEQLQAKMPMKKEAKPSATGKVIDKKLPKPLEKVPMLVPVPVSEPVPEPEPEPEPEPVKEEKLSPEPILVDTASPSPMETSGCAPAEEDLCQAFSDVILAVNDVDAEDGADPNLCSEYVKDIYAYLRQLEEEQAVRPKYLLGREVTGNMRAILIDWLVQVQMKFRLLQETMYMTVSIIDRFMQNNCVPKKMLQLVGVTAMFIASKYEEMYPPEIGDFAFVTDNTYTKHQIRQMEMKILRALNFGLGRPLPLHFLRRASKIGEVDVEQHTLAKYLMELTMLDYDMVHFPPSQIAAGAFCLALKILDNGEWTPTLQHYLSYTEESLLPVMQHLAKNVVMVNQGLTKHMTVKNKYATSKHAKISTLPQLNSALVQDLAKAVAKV

Compound: COc1ccc(CNc2nc(N(CCO)CCO)nc3c2ncn3C(C)C)cc1 [CVT-313]
- inhibition of neointima formation [1]: greater than 80%

Compound: CNCCNc1nccc(-c2ccnc(Nc3cccc(Cl)c3)n2)c1C [Compound 3, N-{4-[2-(3-Chloro-phenylamino)-pyrimidin-4-yl]-3-methyl-pyridin-2-yl}-N′-methyl-ethane-1,2-diamine]
- pIC50 [2]: > 5.30
- pIC50 [3]: > 5.30
- pIC50 [4]: > 5.30
- pIC50 [5]: > 5.30
- pIC50 [6]: > 5.30
- pIC50 [7]: > 5.30
- pIC50 [8]: > 5.30

Compound: CC(=O)NCCCNc1nccc(-c2ccnc(Nc3cccc(Cl)c3)n2)c1C [Compound 6, N-(3-{4-[2-(3-Chloro-phenylamino)-pyrimidin-4-yl]-3-methyl-pyridin-2-ylamino}-propyl)-acetamide]
- pIC50 [2]: > 5.30
- pIC50 [3]: 4.82 to 5.30
- pIC50 [4]: > 5.30
- pIC50 [5]: > 5.30
- pIC50 [6]: 4.82 to 5.30
- pIC50 [7]: 4.82 to 5.30

Compound: CC(=O)NCCCNc1nccc(-c2ccnc(Nc3cccc([N+](=O)[O-])c3)n2)c1C [Compound 25, N-(3-{3-Methyl-4-[2-(3-nitro-phenylamino)-pyrimidin-4-yl]-pyridin-2-ylamino}-propyl)-acetamide]
- pIC50 [2]: > 5.30
- pIC50 [3]: > 5.30
- pIC50 [4]: > 5.30
- pIC50 [5]: > 5.30
- pIC50 [6]: > 5.30
- pIC50 [7]: 4.82 to 5.30
- pIC50 [8]: > 5.30

Compound: CC(=O)NCCCNc1cc(-c2nc(Nc3cccc(Cl)c3)ncc2C)ccn1 [Compound 32, N-(3-{4-[2-(3-Chloro-phenylamino)-5-methyl-pyrimidin-4-yl]-pyridin-2-ylamino}-propyl)-acetamide]
- pIC50 [2]: > 5.30
- pIC50 [3]: > 5.30
- pIC50 [4]: > 5.30
- pIC50 [5]: > 5.30
- pIC50 [6]: > 5.30
- pIC50 [7]: 4.30 to 4.82
- pIC50 [8]: > 5.30

Compound: COc1cnccc1-c1ccnc(Nc2cccc(Cl)c2)n1 [Compound 45, (3-Chloro-phenyl)-[4-(3-methoxy-pyridin-4-yl)-pyrimidin-2-yl]-amine]
- pIC50 [2]: > 5.30
- pIC50 [3]: > 5.30
- pIC50 [4]: > 5.30
- pIC50 [5]: < 4.30
- pIC50 [6]: > 5.30
- pIC50 [7]: 4.82 to 5.30
- pIC50 [8]: > 5.30

Compound: COc1cnccc1-c1ccnc(Nc2cccc(S(C)(=O)=O)c2)n1 [Compound 46, (3-Methanesulfonyl-phenyl)-[4-(3-methoxy-pyridin-4-yl)-pyrimidin-2-yl]-amine]
- pIC50 [2]: > 5.30
- pIC50 [3]: > 5.30
- pIC50 [4]: > 5.30
- pIC50 [5]: > 5.30
- pIC50 [6]: > 5.30
- pIC50 [7]: 4.82 to 5.30
- pIC50 [8]: > 5.30

Compound: NCCNc1ncccc1-c1ccnc(Nc2cccc(Cl)c2)n1 [Compound 52, N-{3-[2-(3-Chloro-phenylamino)-pyrimidin-4-yl]-pyridin-2-yl}-ethane-1,2-diamine]
- pIC50 [2]: > 5.30
- pIC50 [3]: > 5.30
- pIC50 [4]: > 5.30
- pIC50 [5]: > 5.30
- pIC50 [6]: > 5.30
- pIC50 [7]: > 5.30
- pIC50 [8]: > 5.30

Compound: NCCCNc1ncccc1-c1ccnc(Nc2cccc(Cl)c2)n1 [Compound 55, N-{3-[2-(3-Chloro-phenylamino)-pyrimidin-4-yl]-pyridin-2-yl}-propane-1,3-diamine]
- pIC50 [2]: > 5.30
- pIC50 [3]: > 5.30
- pIC50 [4]: > 5.30
- pIC50 [5]: > 5.30
- pIC50 [6]: > 5.30
- pIC50 [7]: > 5.30
- pIC50 [8]: > 5.30

Compound: N#Cc1cccc(Nc2nccc(-c3cccnc3NCCCN)n2)c1 [Compound 60, 3-{4-[2-(3-Amino-propylamino)-pyridin-3-yl]-pyrimidin-2-ylamino}-benzonitrile]
- pIC50 [2]: > 5.30
- pIC50 [3]: > 5.30
- pIC50 [4]: > 5.30
- pIC50 [5]: > 5.30
- pIC50 [6]: > 5.30
- pIC50 [7]: > 5.30
- pIC50 [8]: > 5.30

Compound: CC(C)(CN)CNc1ncccc1-c1ccnc(Nc2cccc(Cl)c2)n1 [Compound 61, N-{3-[2-(3-Chloro-phenylamino)-pyrimidin-4-yl]-pyridin-2-yl}-2,2-dimethyl-propane-1,3-diamine]
- pIC50 [2]: > 5.30
- pIC50 [3]: > 5.30
- pIC50 [4]: > 5.30
- pIC50 [5]: > 5.30
- pIC50 [6]: > 5.30
- pIC50 [7]: > 5.30
- pIC50 [8]: 4.30 to 4.82

Compound: CS(=O)(=O)NCCCNc1ncccc1-c1ccnc(Nc2cccc(Cl)c2)n1 [Compound 72, N-(3-{3-[2-(3-Chloro-phenylamino)-pyrimidin-4-yl]-pyridin-2-ylamino}-propyl)-methanesulfonamide]
- pIC50 [2]: > 5.30
- pIC50 [3]: > 5.30
- pIC50 [4]: > 5.30
- pIC50 [6]: > 5.30
- pIC50 [7]: 4.30 to 4.82
- pIC50 [8]: > 5.30

Compound: CC(=O)NCC(C)(C)CNc1ncccc1-c1ccnc(Nc2cccc(Cl)c2)n1 [Compound 73, N-(3-{3-[2-(3-Chloro-phenylamino)-pyrimidin-4-yl]-pyridin-2-ylamino}-2,2-dimethyl-propyl)-acetamide]
- pIC50 [2]: > 5.30
- pIC50 [3]: > 5.30
- pIC50 [4]: > 5.30
- pIC50 [6]: 4.82 to 5.30
- pIC50 [7]: 4.30 to 4.82
- pIC50 [8]: 4.82 to 5.30

Compound: OCCCNc1ncccc1-c1ccnc(Nc2cccc(Cl)c2)n1 [Compound 74, 3-{3-[2-(3-Chloro-phenylamino)-pyrimidin-4-yl]-pyridin-2-ylamino}-propan-1-ol]
- pIC50 [2]: > 5.30
- pIC50 [3]: > 5.30
- pIC50 [4]: > 5.30
- pIC50 [5]: > 5.30
- pIC50 [6]: > 5.30
- pIC50 [7]: 4.30 to 4.82
- pIC50 [8]: > 5.30

Compound: Clc1cccc(Nc2nccc(-c3cccnc3NCCCn3ccnc3)n2)c1 [Compound 80, (3-Chloro-phenyl)-{4-[2-(3-imidazol-1-yl-propylamino)-pyridin-3-yl]-pyrimidin-2-yl}-amine]
- pIC50 [2]: > 5.30
- pIC50 [3]: > 5.30
- pIC50 [4]: > 5.30
- pIC50 [5]: > 5.30
- pIC50 [6]: > 5.30
- pIC50 [7]: 4.82 to 5.30
- pIC50 [8]: > 5.30

Compound: NCCCCNc1ncccc1-c1ccnc(Nc2cccc(Cl)c2)n1 [Compound 84, N-{3-[2-(3-Chloro-phenylamino)-pyrimidin-4-yl]-pyridin-2-yl}-butane-1,4-diamine]
- pIC50 [2]: > 5.30
- pIC50 [3]: > 5.30
- pIC50 [4]: > 5.30
- pIC50 [6]: > 5.30
- pIC50 [7]: > 5.30
- pIC50 [8]: > 5.30

Compound: COc1ncccc1-c1ccnc(Nc2cccc(C#N)c2)n1 [Compound 91, 3-[4-(2-Methoxy-pyridin-3-yl)-pyrimidin-2-ylamino]-benzonitrile]
- pIC50 [2]: > 5.30
- pIC50 [3]: > 5.30
- pIC50 [4]: > 5.30
- pIC50 [5]: < 4.30
- pIC50 [6]: < 4.30
- pIC50 [7]: 4.30 to 4.82
- pIC50 [8]: > 5.30

Compound: COc1ncccc1-c1ccnc(Nc2cccc(S(C)(=O)=O)c2)n1 [Compound 93, (3-Methanesulfonyl-phenyl)-[4-(2-methoxy-pyridin-3-yl)-pyrimidin-2-yl]-amine]
- pIC50 [2]: > 5.30
- pIC50 [3]: > 5.30
- pIC50 [4]: > 5.30
- pIC50 [6]: > 5.30
- pIC50 [7]: 4.30 to 4.82
- pIC50 [8]: > 5.30

Compound: COc1ncccc1-c1ccnc(Nc2cccc(S(N)(=O)=O)c2)n1 [Compound 99, 3-[4-(2-Methoxy-pyridin-3-yl)-pyrimidin-2-ylamino]-benzenesulfonamide]
- pIC50 [2]: > 5.30
- pIC50 [3]: > 5.30
- pIC50 [4]: > 5.30
- pIC50 [5]: 4.82 to 5.30
- pIC50 [6]: > 5.30
- pIC50 [7]: > 5.30
- pIC50 [8]: > 5.30

Compound: COc1ccc(-c2ccnc(Nc3cccc(S(C)(=O)=O)c3)n2)c(OC)n1 [Compound 119, [4-(2,6-Dimethoxy-pyridin-3-yl)-pyrimidin-2-yl]-(3-methanesulfonyl-phenyl)-amine]
- pIC50 [2]: > 5.30
- pIC50 [3]: > 5.30
- pIC50 [4]: > 5.30
- pIC50 [5]: < 4.30
- pIC50 [6]: < 4.30
- pIC50 [7]: 4.30 to 4.82
- pIC50 [8]: 4.82 to 5.30
